# How the values were obtained:
# [1] = Solid state solubility of PTX and TXT in polymers (phase separation in cast films); format: physicochemical; set-up: key: +ve: Phase separation; −ve: No phase separation
# From the text: For this example, polymer and drug solutions in chloroform at different % of drug to polymer were casted into films on glass slides. Following solvent evaporation of chloroform in a chemical hood overnight, the casted films were observed under a light microscope. Phase separation was clearly evident from crystallization of the drug in the polymer film whereas the films were homogeneous when there was no phase separation.
# PC-3 cells = experiment: Cytotoxicity of TXT and TXT-NPs in PC-3 cells; format: cell-based; conditions: for IC50 / IC90: Homo sapiens
# From the text: (§1) In order to confirm the efficacy of TXT NPs, we determined IC50 of the drug and drug encapsulated in NPs in PC-3 and DU145 cells.
# DU145 cells = experiment: Cytotoxicity of TXT and TXT-NPs in DU145 cells; format: cell-based; conditions: DU145, 5 day
# From the text: as §1
smiles,measurement,setting,value
"CC(=O)O[C@@]12CO[C@@H]1C[C@H](O)[C@@]1(C)C(=O)[C@H](O)C3=C(C)[C@@H](OC(=O)[C@H](O)[C@@H](NC(=O)OC(C)(C)C)c4ccccc4)C[C@@](O)([C@@H](OC(=O)c4ccccc4)[C@H]21)C3(C)C [Docetaxel, (2R,3S)-N-carboxy-3-phenylisoserine, N-tert-butyl ester, 13-ester with 5b-20-epoxy-12a,4,7b,10b,13a-hexahydroxytax-11-en-9-one 4-acetate 2-benzoate, trihydrate]",Phase Separation,"[1]; drug 1% w/w, polymer inherent viscosity 0.16 dL/g, Lactide/Glycolide 50/50",−
same,Phase Separation,"[1]; drug 1% w/w, polymer inherent viscosity 0.18 dL/g, Lactide/Glycolide 75/25",+
same,Phase Separation,"[1]; drug 1% w/w, polymer inherent viscosity 0.26-0.54 dL/g, Lactide/Glycolide 50/50, Ester Terminated",+
same,Phase Separation,"[1]; drug 1% w/w, polymer inherent viscosity 0.39 dL/g, Lactide/Glycolide 50/50",−
same,Phase Separation,"[1]; drug 1% w/w, polymer inherent viscosity 0.55-0.75 dL/g, Lactide/Glycolide 50/50, Carbohydrate end Group",+
same,Phase Separation,"[1]; drug 1% w/w, polymer inherent viscosity 0.63 dL/g, Lactide/Glycolide 85/15",+
same,Phase Separation,"[1]; drug 1% w/w, polymer inherent viscosity 0.64 dL/g, Lactide/Glycolide 65/35",+
same,Phase Separation,"[1]; drug 1% w/w, polymer inherent viscosity 0.64 dL/g, Lactide/Glycolide 75/25",+
same,Phase Separation,"[1]; drug 1% w/w, polymer inherent viscosity 0.67 dL/g, Lactide/Glycolide 65/35",−
same,Phase Separation,"[1]; drug 1% w/w, polymer inherent viscosity 0.69 dL/g, Lactide/Glycolide 50/50 (first of two such lines, r12)",−
same,Phase Separation,"[1]; drug 1% w/w, polymer inherent viscosity 0.69 dL/g, Lactide/Glycolide 50/50 (second of two such lines, r13)",+
same,Phase Separation,"[1]; drug 1% w/w, polymer inherent viscosity 0.76-0.94 dL/g, Lactide/Glycolide 50/50",+
same,Phase Separation,"[1]; drug 1% w/w, polymer inherent viscosity 0.87 dL/g, Lactide/Glycolide 50/50",+
same,Phase Separation,"[1]; drug 1% w/w, polymer inherent viscosity 0.95-1.20 dL/g, Lactide/Glycolide 50/50",−
same,Phase Separation,"[1]; drug 1% w/w, polymer inherent viscosity 1.15 dL/g, Lactide/Glycolide 50/50",+
same,Phase Separation,"[1]; drug 1% w/w, polymer inherent viscosity 1.24 dL/g, Lactide/Glycolide 50/50",+
same,Phase Separation,"[1]; drug 5% w/w, polymer inherent viscosity 0.16 dL/g, Lactide/Glycolide 50/50",−
same,Phase Separation,"[1]; drug 5% w/w, polymer inherent viscosity 0.18 dL/g, Lactide/Glycolide 75/25",+
same,Phase Separation,"[1]; drug 5% w/w, polymer inherent viscosity 0.26-0.54 dL/g, Lactide/Glycolide 50/50, Ester Terminated",+
same,Phase Separation,"[1]; drug 5% w/w, polymer inherent viscosity 0.39 dL/g, Lactide/Glycolide 50/50",−
same,Phase Separation,"[1]; drug 5% w/w, polymer inherent viscosity 0.55-0.75 dL/g, Lactide/Glycolide 50/50, Carbohydrate end Group",+
same,Phase Separation,"[1]; drug 5% w/w, polymer inherent viscosity 0.63 dL/g, Lactide/Glycolide 85/15",+
same,Phase Separation,"[1]; drug 5% w/w, polymer inherent viscosity 0.64 dL/g, Lactide/Glycolide 65/35",+
same,Phase Separation,"[1]; drug 5% w/w, polymer inherent viscosity 0.64 dL/g, Lactide/Glycolide 75/25",+
same,Phase Separation,"[1]; drug 5% w/w, polymer inherent viscosity 0.67 dL/g, Lactide/Glycolide 65/35",+
same,Phase Separation,"[1]; drug 5% w/w, polymer inherent viscosity 0.69 dL/g, Lactide/Glycolide 50/50 (first of two such lines, r12)",−
same,Phase Separation,"[1]; drug 5% w/w, polymer inherent viscosity 0.69 dL/g, Lactide/Glycolide 50/50 (second of two such lines, r13)",+
same,Phase Separation,"[1]; drug 5% w/w, polymer inherent viscosity 0.76-0.94 dL/g, Lactide/Glycolide 50/50",+
same,Phase Separation,"[1]; drug 5% w/w, polymer inherent viscosity 0.87 dL/g, Lactide/Glycolide 50/50",+
same,Phase Separation,"[1]; drug 5% w/w, polymer inherent viscosity 0.95-1.20 dL/g, Lactide/Glycolide 50/50",−
same,Phase Separation,"[1]; drug 5% w/w, polymer inherent viscosity 1.15 dL/g, Lactide/Glycolide 50/50",+
same,Phase Separation,"[1]; drug 5% w/w, polymer inherent viscosity 1.24 dL/g, Lactide/Glycolide 50/50",+
same,Phase Separation,"[1]; drug 10% w/w, polymer inherent viscosity 0.16 dL/g, Lactide/Glycolide 50/50",−
same,Phase Separation,"[1]; drug 10% w/w, polymer inherent viscosity 0.18 dL/g, Lactide/Glycolide 75/25",+
same,Phase Separation,"[1]; drug 10% w/w, polymer inherent viscosity 0.26-0.54 dL/g, Lactide/Glycolide 50/50, Ester Terminated",+
same,Phase Separation,"[1]; drug 10% w/w, polymer inherent viscosity 0.39 dL/g, Lactide/Glycolide 50/50",−
same,Phase Separation,"[1]; drug 10% w/w, polymer inherent viscosity 0.55-0.75 dL/g, Lactide/Glycolide 50/50, Carbohydrate end Group",+
same,Phase Separation,"[1]; drug 10% w/w, polymer inherent viscosity 0.63 dL/g, Lactide/Glycolide 85/15",+
same,Phase Separation,"[1]; drug 10% w/w, polymer inherent viscosity 0.64 dL/g, Lactide/Glycolide 65/35",+
same,Phase Separation,"[1]; drug 10% w/w, polymer inherent viscosity 0.64 dL/g, Lactide/Glycolide 75/25",+
same,Phase Separation,"[1]; drug 10% w/w, polymer inherent viscosity 0.67 dL/g, Lactide/Glycolide 65/35",+
same,Phase Separation,"[1]; drug 10% w/w, polymer inherent viscosity 0.69 dL/g, Lactide/Glycolide 50/50 (first of two such lines, r12)",−
same,Phase Separation,"[1]; drug 10% w/w, polymer inherent viscosity 0.69 dL/g, Lactide/Glycolide 50/50 (second of two such lines, r13)",+
same,Phase Separation,"[1]; drug 10% w/w, polymer inherent viscosity 0.76-0.94 dL/g, Lactide/Glycolide 50/50",+
same,Phase Separation,"[1]; drug 10% w/w, polymer inherent viscosity 0.87 dL/g, Lactide/Glycolide 50/50",+
same,Phase Separation,"[1]; drug 10% w/w, polymer inherent viscosity 0.95-1.20 dL/g, Lactide/Glycolide 50/50",−
same,Phase Separation,"[1]; drug 10% w/w, polymer inherent viscosity 1.15 dL/g, Lactide/Glycolide 50/50",+
same,Phase Separation,"[1]; drug 10% w/w, polymer inherent viscosity 1.24 dL/g, Lactide/Glycolide 50/50",+
same,Phase Separation,"[1]; drug 15% w/w, polymer inherent viscosity 0.16 dL/g, Lactide/Glycolide 50/50",−
same,Phase Separation,"[1]; drug 15% w/w, polymer inherent viscosity 0.18 dL/g, Lactide/Glycolide 75/25",+
same,Phase Separation,"[1]; drug 15% w/w, polymer inherent viscosity 0.26-0.54 dL/g, Lactide/Glycolide 50/50, Ester Terminated",+
same,Phase Separation,"[1]; drug 15% w/w, polymer inherent viscosity 0.39 dL/g, Lactide/Glycolide 50/50",−
same,Phase Separation,"[1]; drug 15% w/w, polymer inherent viscosity 0.55-0.75 dL/g, Lactide/Glycolide 50/50, Carbohydrate end Group",+
same,Phase Separation,"[1]; drug 15% w/w, polymer inherent viscosity 0.63 dL/g, Lactide/Glycolide 85/15",+
same,Phase Separation,"[1]; drug 15% w/w, polymer inherent viscosity 0.64 dL/g, Lactide/Glycolide 65/35",+
same,Phase Separation,"[1]; drug 15% w/w, polymer inherent viscosity 0.64 dL/g, Lactide/Glycolide 75/25",+
same,Phase Separation,"[1]; drug 15% w/w, polymer inherent viscosity 0.67 dL/g, Lactide/Glycolide 65/35",+
same,Phase Separation,"[1]; drug 15% w/w, polymer inherent viscosity 0.69 dL/g, Lactide/Glycolide 50/50 (first of two such lines, r12)",−
same,Phase Separation,"[1]; drug 15% w/w, polymer inherent viscosity 0.69 dL/g, Lactide/Glycolide 50/50 (second of two such lines, r13)",+
same,Phase Separation,"[1]; drug 15% w/w, polymer inherent viscosity 0.76-0.94 dL/g, Lactide/Glycolide 50/50",+
same,Phase Separation,"[1]; drug 15% w/w, polymer inherent viscosity 0.87 dL/g, Lactide/Glycolide 50/50",+
same,Phase Separation,"[1]; drug 15% w/w, polymer inherent viscosity 0.95-1.20 dL/g, Lactide/Glycolide 50/50",−
same,Phase Separation,"[1]; drug 15% w/w, polymer inherent viscosity 1.15 dL/g, Lactide/Glycolide 50/50",+
same,Phase Separation,"[1]; drug 15% w/w, polymer inherent viscosity 1.24 dL/g, Lactide/Glycolide 50/50",+
same,Phase Separation,"[1]; drug 20% w/w, polymer inherent viscosity 0.16 dL/g, Lactide/Glycolide 50/50",−
same,Phase Separation,"[1]; drug 20% w/w, polymer inherent viscosity 0.18 dL/g, Lactide/Glycolide 75/25",+
same,Phase Separation,"[1]; drug 20% w/w, polymer inherent viscosity 0.26-0.54 dL/g, Lactide/Glycolide 50/50, Ester Terminated",+
same,Phase Separation,"[1]; drug 20% w/w, polymer inherent viscosity 0.39 dL/g, Lactide/Glycolide 50/50",−
same,Phase Separation,"[1]; drug 20% w/w, polymer inherent viscosity 0.55-0.75 dL/g, Lactide/Glycolide 50/50, Carbohydrate end Group",+
same,Phase Separation,"[1]; drug 20% w/w, polymer inherent viscosity 0.63 dL/g, Lactide/Glycolide 85/15",+
same,Phase Separation,"[1]; drug 20% w/w, polymer inherent viscosity 0.64 dL/g, Lactide/Glycolide 65/35",+
same,Phase Separation,"[1]; drug 20% w/w, polymer inherent viscosity 0.64 dL/g, Lactide/Glycolide 75/25",+
same,Phase Separation,"[1]; drug 20% w/w, polymer inherent viscosity 0.67 dL/g, Lactide/Glycolide 65/35",+
same,Phase Separation,"[1]; drug 20% w/w, polymer inherent viscosity 0.69 dL/g, Lactide/Glycolide 50/50 (first of two such lines, r12)",+
same,Phase Separation,"[1]; drug 20% w/w, polymer inherent viscosity 0.69 dL/g, Lactide/Glycolide 50/50 (second of two such lines, r13)",+
same,Phase Separation,"[1]; drug 20% w/w, polymer inherent viscosity 0.76-0.94 dL/g, Lactide/Glycolide 50/50",+
same,Phase Separation,"[1]; drug 20% w/w, polymer inherent viscosity 0.87 dL/g, Lactide/Glycolide 50/50",+
same,Phase Separation,"[1]; drug 20% w/w, polymer inherent viscosity 0.95-1.20 dL/g, Lactide/Glycolide 50/50",+
same,Phase Separation,"[1]; drug 20% w/w, polymer inherent viscosity 1.15 dL/g, Lactide/Glycolide 50/50",+
same,Phase Separation,"[1]; drug 20% w/w, polymer inherent viscosity 1.24 dL/g, Lactide/Glycolide 50/50",+
same,IC50,"PC-3 cells; PC-3, 72 h, PC3, 3 day",2.5 ± 0.05 ng/mL
same,IC90,"PC-3 cells; PC-3, 72 h, PC3, 3 day",6.31 ± 0.17 ng/mL
same,IC50,"PC-3 cells; PC-3, 120 h, PC3, 5 day",1.6 ± 0.01 ng/mL
same,IC90,"PC-3 cells; PC-3, 120 h, PC3, 5 day",5 ± 0.07 ng/mL
same,IC50,"PC-3 cells; PC-3, 168 h, PC3, 7 day",1.6 ± 0.01 ng/mL
same,IC90,"PC-3 cells; PC-3, 168 h, PC3, 7 day",4.2 ± 0.08 ng/mL
same,IC75,"PC-3 cells; PC3, 3 day",3.8 ± 0.03 ng/mL
same,IC75,"PC-3 cells; PC3, 5 day",2.5 ± 0.02 ng/mL
same,IC75,"PC-3 cells; PC3, 7 day",2.5 ± 0.01 ng/mL
same,IC75,DU145 cells,1.9 ± 0.03 ng/mL
same,IC50,"DU145 cells; Homo sapiens, DU-145, 120 h",1.5 ± 0.04 ng/mL
same,IC90,"DU145 cells; Homo sapiens, DU-145, 120 h",2.4 ± 0.02 ng/mL

# From patent US11013817B2, “Nanoparticles for drug delivery to treat bone disease” (The Cleveland Clinic Foundation, priority 2016, dated 2021)
